Read-outs that look alike come from different tables or passages of the source. Blank lines part the entries; values can stand above or below the molecule they belong to.
Experiments:
[1] = Tablet stability at high temperature (60° C.), high humidity (92.5% RH), −20° C.; assay type: physicochemical
[2] = for Water (water-addition-precipitating critical point of drug solution): 100 mg drug; for dissolution in aqueous solution containing surfactant: magnetic stirring 1 hour
Protocol: In this study, a dissolution test was performed using a single non-aqueous solvent ethanol.
In this study, a dissolution test was also performed using composite solvents composed of PEG400 or PEG200 and absolute ethanol, respectively.
In addition, in this study, dissolution tests were also performed using a single non-aqueous solvent propylene glycol, or a composite solvent composed of propylene glycol and other non-aqueous solvent.
Next, the dilution stability of these two solvent systems was tested.

[3] = Concentration of drug-containing HP-β-CD preparation after filtration (HPLC); conditions: 21 mg/ml drug-containing preparation in 30% HP-β-CD, pH 1.2; API not completely dissolved after 30 minutes ultrasound; 0.45 μm PES filter
[4] = API 0.5 mg/ml, 20% γ-CD, molar ratio 174:1
Protocol: (§1) Different kinds of cyclodextrins were dissolved with an aqueous hydrochloric acid solution (0.1N) having a pH value of 1.2 to determine the saturation concentration of each cyclodextrin.
A certain amount of API was weighed and added into an appropriate volume of the cyclodextrin solution. […] The clear solution after the pH adjustment was left to stand to observe the state of the solution after standing for 2 hours, 4 hours, and 24 hours.

[5] = Maximum solubility of cyclodextrins in hydrochloric acid solution pH 1.2
Protocol: as §1
(1) A certain amount of α-, β- and γ-cyclodextrin were weighed and added into a 10 mL volumetric flask, then an aqueous hydrochloric acid solution of pH 1.2 was gradually added until reaching the scale of the flask, and the flask was shocked and ultrasound was performed to dissolve the cyclodextrin. The maximum amount of cyclodextrin capable of being dissolved in a 10 mL solution was recorded.

Compound: O=C(Cc1ccc(-c2ccc(N3CCOCC3)cc2)cn1)NCc1cccc(F)c1.O=S(=O)(O)c1ccccc1 [KX2-361.benzene sulfonate]
Total impurity (%) ([1]; 0 day): 0.33%
Total impurity (%) ([1]; High humidity, 20 days): 0.31%
Total impurity (%) ([1]; High temperature, 10 days): 0.32%
Total impurity (%) ([1]; High temperature, 20 days): 0.32%
Total impurity (%) ([1]; −20° C., 20 days): 0.36%
Water (water-addition-precipitating critical point of drug solution) ([2]; Cremophor EL 17.1 g, 40° C.): 6.7 g
Water (water-addition-precipitating critical point of drug solution) ([2]; Solutolo HS-15 10 g, 40° C.): 4.5 g
Water (water-addition-precipitating critical point of drug solution) ([2]; Solutolo HS-15 15 g, 28° C.): 8.7 g
Water (water-addition-precipitating critical point of drug solution) ([2]; Solutolo HS-15 20 g, 28° C.): 12.6 g
dissolution in aqueous solution containing surfactant ([2]; drug containing 10 mg of KX2-361 in 0.6% Poloxamer 188 aqueous solution (50 ml)): failed to completely dissolve
dissolution in aqueous solution containing surfactant ([2]; drug containing 10 mg of KX2-361 in 2% Tween80 aqueous solution (50 ml)): failed to completely dissolve
dissolution in aqueous solution containing surfactant ([2]; drug containing 10 mg of KX2-361 in 8% Solutol HS15 aqueous solution (50 ml)): failed to completely dissolve
dissolution in aqueous solution containing surfactant ([2]; drug containing 10 mg of KX2-361 in 10% Cremophor EL aqueous solution (50 ml)): failed to completely dissolve
dissolution in propylene glycol ([2]; drug containing 50 mg of KX2-361 in 20 ml of propylene glycol alone, a trace of small particles still present): could substantially be dissolved
solubility in ethanol ([2]; ethanol (95% v/v)): 1.12 to 2.38 mg/mL
concentration after filtration, calibrated with HPLC [3]: 20.66 mg/mL
Solution phenomenon when the pH value was adjusted to 4 [4]: turbid

Compound: OC[C@H]1O[C@@H]2O[C@H]3[C@H](O)[C@@H](O)[C@@H](O[C@H]4[C@H](O)[C@@H](O)[C@@H](O[C@H]5[C@H](O)[C@@H](O)[C@@H](O[C@H]6[C@H](O)[C@@H](O)[C@@H](O[C@H]7[C@H](O)[C@@H](O)[C@@H](O[C@H]1[C@H](O)[C@H]2O)O[C@@H]7CO)O[C@@H]6CO)O[C@@H]5CO)O[C@@H]4CO)O[C@@H]3CO [α-cyclodextrin]
maximum solubility ([5]; aqueous hydrochloric acid solution of a pH value of 1.2): about 8%

maximum solubility [5]: about 1%
Compound: OC[C@H]1O[C@@H]2O[C@H]3[C@H](O)[C@@H](O)[C@@H](O[C@H]4[C@H](O)[C@@H](O)[C@@H](O[C@H]5[C@H](O)[C@@H](O)[C@@H](O[C@H]6[C@H](O)[C@@H](O)[C@@H](O[C@H]7[C@H](O)[C@@H](O)[C@@H](O[C@H]8[C@H](O)[C@@H](O)[C@@H](O[C@H]1[C@H](O)[C@H]2O)O[C@@H]8CO)O[C@@H]7CO)O[C@@H]6CO)O[C@@H]5CO)O[C@@H]4CO)O[C@@H]3CO [β-cyclodextrin]

maximum solubility [5]: about 20%
Compound: OC[C@H]1O[C@@H]2O[C@H]3[C@H](O)[C@@H](O)[C@@H](O[C@H]4[C@H](O)[C@@H](O)[C@@H](O[C@H]5[C@H](O)[C@@H](O)[C@@H](O[C@H]6[C@H](O)[C@@H](O)[C@@H](O[C@H]7[C@H](O)[C@@H](O)[C@@H](O[C@H]8[C@H](O)[C@@H](O)[C@@H](O[C@H]9[C@H](O)[C@@H](O)[C@@H](O[C@H]1[C@H](O)[C@H]2O)O[C@@H]9CO)O[C@@H]8CO)O[C@@H]7CO)O[C@@H]6CO)O[C@@H]5CO)O[C@@H]4CO)O[C@@H]3CO [γ-cyclodextrin]

Source: US11007141B2, “Oral preparation and preparation method thereof” (GUANGZHOU XIANGXUE PHARMACEUTICAL CO., LTD., priority 2015, dated 2021)
